Among the data in patent publication US11384055B2 (BIOMARIN PHARMACEUTICAL INC., priority 2017, dated 2022) are IC50 values, retold here.

This assay has as its target T1, Human GO (Homo sapiens, UniProt Q9UJM8).
T1 construct: purchased Novus Biologicals NBP1-72412
T1 sequence (Q9UJM8 1-370): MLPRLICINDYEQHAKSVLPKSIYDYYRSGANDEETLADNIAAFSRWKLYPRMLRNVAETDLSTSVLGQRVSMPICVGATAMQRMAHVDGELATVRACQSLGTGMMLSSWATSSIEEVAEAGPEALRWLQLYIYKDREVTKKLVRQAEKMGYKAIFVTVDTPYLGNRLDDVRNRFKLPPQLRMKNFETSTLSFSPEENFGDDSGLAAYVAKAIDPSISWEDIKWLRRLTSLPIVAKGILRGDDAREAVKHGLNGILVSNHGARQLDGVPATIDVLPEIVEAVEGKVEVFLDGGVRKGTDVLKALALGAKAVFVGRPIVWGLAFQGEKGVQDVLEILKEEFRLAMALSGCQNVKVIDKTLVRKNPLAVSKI
Briefly: GO enzymatic assay (coupled fluorescence/HRP assay, glycolate substrate). The format is biochemical. The essentials: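 Coupled HRP/fluorescence read-out of glycolate oxidation by human GO in 50 mM potassium phosphate buffer (pH 7). Inhibitors added across a concentration range.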

The mark [1] stands for this setting: Table 1, read-out: Range (range of IC50 values calculated from the enzymatic assays).
Where [2] appears, read: Table 6, GO enzymatic assay, read-out: Range (range of IC50 values calculated from the enzymatic assays).

Where two headings read alike, the source gives them in different places.

The term IC50 denotes the concentration at which inhibition is half-maximal. In the case of `CC(C)(C)C(=O)OCOC(=O)c1[nH]nnc1Nc1ccc(-c2ccc(Cl)cc2)cc1` [Compound 81, (pivaloyloxy)methyl 4-((4′-chloro-[1,1′-biphenyl]-4-yl)amino)-1H-1,2,3-triazole-5-carboxylate], the IC50 under setting [1] is 1000 to 10000 nM.

`O=C(O)c1[nH]nnc1Nc1ccc2cc(Cl)ccc2c1` [Compound 82, 4-((6-chloronaphthalen-2-yl)amino)-1H-1,2,3-triazole-5-carboxylic acid 2,2,2-trifluoroacetate]: under setting [1], the IC50 is 100 to 1000 nM. The same measure, in the same setting: with `O=C(O)c1[nH]nnc1Nc1ccc(OC(F)(F)F)cc1` [Compound 83, 4-((4-(trifluoromethoxy)phenyl)amino)-1H-1,2,3-triazole-5-carboxylic acid] the figure was 100 to 1000 nM; with `O=C(O)c1[nH]nnc1N1CCc2ccccc2C1` [Compound 84, 4-(3,4-dihydroisoquinolin-2(1H)-yl)-1H-1,2,3-triazole-5-carboxylic acid 2,2,2-trifluoroacetate], 100 to 1000 nM. Still for that read-out and setting: with `O=C(O)c1[nH]nnc1Nc1ccc2cc(Br)ccc2c1` [Compound 85, 4-((6-bromonaphthalen-2-yl)amino)-1H-1,2,3-triazole-5-carboxylic acid 2,2,2-trifluoroacetate] the figure was below 100 nM. In turn, `O=C(O)c1[nH]nnc1Oc1ccc(-c2ccc(Cl)cc2)cc1` [Compound 86, 4-((4′-chloro-[1,1′-biphenyl]-4-yl)oxy)-1H-1,2,3-triazole-5-carboxylic acid] registered an IC50 below 100 nM. As for `O=C(O)c1[nH]nnc1Oc1ccc(-c2ccc(OC(F)(F)F)cc2)cc1` [Compound 87, 4-((4′-(trifluoromethoxy)-[1,1′-biphenyl]-4-yl)oxy)-1H-1,2,3-triazole-5-carboxylic acid], the half-maximal inhibitory concentration (IC50) under setting [1] was below 100 nM.

Consider `O=C(O)c1[nH]nnc1Oc1ccc(Cl)c(Cl)c1` [Compound 88, 4-(3,4-dichlorophenoxy)-1H-1,2,3-triazole-5-carboxylic acid], for which the IC50 is below 100 nM. `O=C(O)c1[nH]nnc1Oc1ccc2cc(Br)ccc2c1` [Compound 89, 4-((6-bromonaphthalen-2-yl)oxy)-1H-1,2,3-triazole-5-carboxylic acid]: the IC50 under setting [1] was below 100 nM.

On to `O=C(O)c1[nH]nnc1OC1CCN(c2ccc(OC(F)(F)F)cc2)C1` (stereo not drawn) [Compound 90, 4-((1-(4-(trifluoromethoxy)phenyl)pyrrolidin-3-yl)oxy)-1H-1,2,3-triazole-5-carboxylic acid], for which the IC50 under setting [1] was below 100 nM. The same measure, in the same setting: with `O=C(O)c1[nH]nnc1Oc1cc(Cl)cc(Cl)c1` [Compound 91, 4-(3,5-dichlorophenoxy)-1H-1,2,3-triazole-5-carboxylic acid] the figure was below 100 nM. Still for that read-out and setting: with `O=C(O)c1nn[nH]c1Oc1ccc(Cl)c2ccccc12` [Compound 92, 4-((4-chloronaphthalen-1-yl)oxy)-1H-1,2,3-triazole-5-carboxylic acid] the figure was below 100 nM; with `COC(=O)c1[nH]nnc1Oc1ccc2cc(Br)ccc2c1` [Compound 93, methyl 4-((6-bromonaphthalen-2-yl)oxy)-1H-1,2,3-triazole-5-carboxylate], above 10000 nM. Take `O=C(O)c1[nH]nnc1Oc1ccc(F)c(F)c1` [Compound 94, 4-(3,4-difluorophenoxy)-1H-1,2,3-triazole-5-carboxylic acid]: the IC50 was below 100 nM. In the case of `O=C(O)c1[nH]nnc1Oc1ccc(Cl)cc1Cl` [Compound 95, 4-(2,4-dichlorophenoxy)-1H-1,2,3-triazole-5-carboxylic acid], under setting [1], the IC50 is below 100 nM.

Consider `O=C(O)c1[nH]nnc1Oc1ccc(OC(F)(F)F)cc1` [Compound 96, 4-(4-(trifluoromethoxy)phenoxy)-1H-1,2,3-triazole-5-carboxylic acid], for which the IC50 under setting [1] was below 100 nM. On the same count and under the same terms, under `O=C(O)c1[nH]nnc1Oc1ccc2c(c1)CCCC2` [Compound 97, 4-((5,6,7,8-tetrahydronaphthalen-2-yl)oxy)-1H-1,2,3-triazole-5-carboxylic acid] stands below 100 nM; under `O=C(O)c1[nH]nnc1Oc1ccc2ncsc2c1` [Compound 99, 4-(benzo[d]thiazol-6-yloxy)-1H-1,2,3-triazole-5-carboxylic acid 2,2,2-trifluoroacetate], below 100 nM; under `O=C(O)c1[nH]nnc1Oc1cc(Cl)ccc1Cl` [Compound 100, 4-(2,5-dichlorophenoxy)-1H-1,2,3-triazole-5-carboxylic acid], below 100 nM. Consider `CC(=O)OCn1nnc(Oc2ccc3cc(Br)ccc3c2)c1C(=O)O` [Compound 101, 1-(acetoxymethyl)-4-((6-bromonaphthalen-2-yl)oxy)-1H-1,2,3-triazole-5-carboxylic acid], for which the IC50 under setting [1] is 100 to 1000 nM.

The compound `CC(C)(C)C(=O)OCn1nnc(Oc2ccc(Cl)c(Cl)c2)c1C(=O)O` [Compound 102, 4-(3,4-dichlorophenoxy)-1-((pivaloyloxy)methyl)-1H-1,2,3-triazole-5-carboxylic acid] gave a half-inhibitory concentration (IC50) of 100 to 1000 nM. Regarding `CC(C)C(=O)OCn1nnc(Oc2ccc(Cl)c(Cl)c2)c1C(=O)O` [Compound 103, 4-(3,4-dichlorophenoxy)-1-((isobutyryloxy)methyl)-1H-1,2,3-triazole-5-carboxylic acid], the IC50 fell in the range of 100 to 1000 nM. Take `CC(=O)OCn1nnc(Oc2ccc(Cl)c(Cl)c2)c1C(=O)O` [Compound 104, 1-(acetoxymethyl)-4-(3,4-dichlorophenoxy)-1H-1,2,3-triazole-5-carboxylic acid]: the IC50 fell in the range of 100 to 1000 nM. `CC(=O)OCOC(=O)c1[nH]nnc1Oc1ccc2cc(Br)ccc2c1` [Compound 105, acetoxymethyl 4-((6-bromonaphthalen-2-yl)oxy)-1H-1,2,3-triazole-5-carboxylate]: under setting [1], the IC50 was 1000 to 10000 nM. Still for that read-out and setting: under `O=C(O)c1[nH]nnc1Oc1ccc2cc(Cl)ccc2c1` [Compound 106, 4-((6-chloronaphthalen-2-yl)oxy)-1H-1,2,3-triazole-5-carboxylic acid 2,2,2-trifluoroacetate] stands below 100 nM; under `CC(C)(C)C(=O)OCOC(=O)c1[nH]nnc1Oc1ccc(Cl)c(Cl)c1` [Compound 107, (pivaloyloxy)methyl 4-(3,4-dichlorophenoxy)-1H-1,2,3-triazole-5-carboxylate], 1000 to 10000 nM; under `CC(C)C(=O)OCOC(=O)c1[nH]nnc1Oc1ccc(Cl)c(Cl)c1` [Compound 108, (isobutyryloxy)methyl 4-(3,4-dichlorophenoxy)-1H-1,2,3-triazole-5-carboxylate], 100 to 1000 nM.

For the compound `CC(=O)OCOC(=O)c1[nH]nnc1Oc1ccc(Cl)c(Cl)c1` [Compound 109, acetoxymethyl 4-(3,4-dichlorophenoxy)-1H-1,2,3-triazole-5-carboxylate], the half-maximal inhibitory concentration (IC50) under setting [1] is below 100 nM. Turning to `O=C(O)c1[nH]nnc1OC1CCc2cc(Cl)c(Cl)cc2C1` (stereo not drawn) [Compound 111, 4-((6,7-dichloro-1,2,3,4-tetrahydronaphthalen-2-yl)oxy)-1H-1,2,3-triazole-5-carboxylic acid 2,2,2-trifluoroacetate], the concentration for half-maximal inhibition (IC50) under setting [1] is below 100 nM.

With `O=C(O)c1[nH]nnc1O[C@@H]1CCc2cc(Cl)c(Cl)cc2C1` [Compound 111-1, (R)-4-((6,7-dichloro-1,2,3,4-tetrahydronaphthalen-2-yl)oxy)-1H-1,2,3-triazole-5-carboxylic acid], the IC50 under setting [2] was below 100 nM. Still for that read-out and setting: under `O=C(O)c1[nH]nnc1O[C@H]1CCc2cc(Cl)c(Cl)cc2C1` [Compound 111-2, (S)-4-((6,7-dichloro-1,2,3,4-tetrahydronaphthalen-2-yl)oxy)-1H-1,2,3-triazole-5-carboxylic acid] stands below 100 nM. On to `O=C(OC1CC1)c1[nH]nnc1Oc1ccc(Cl)c(Cl)c1` [Compound 112, cyclopropyl 4-(3,4-dichlorophenoxy)-1H-1,2,3-triazole-5-carboxylate], for which the concentration for half-maximal inhibition (IC50) under setting [1] was above 10000 nM. On the same count and under the same terms, with `O=C(O)c1[nH]nnc1Oc1ccc2cccnc2c1` [Compound 113, 4-(quinolin-7-yloxy)-1H-1,2,3-triazole-5-carboxylic acid 2,2,2-trifluoroacetate] the figure was below 100 nM; with `O=C(O)c1[nH]nnc1Oc1cccc(OC(F)(F)F)c1` [Compound 114, 4-(3-(trifluoromethoxy)phenoxy)-1H-1,2,3-triazole-5-carboxylic acid], below 100 nM; with `O=C(O)c1[nH]nnc1Oc1cnc2ccccc2c1` [Compound 115, 4-(quinolin-3-yloxy)-1H-1,2,3-triazole-5-carboxylic acid 2,2,2-trifluoroacetate], 100 to 1000 nM. On the same count and under the same terms, with `O=C(OC1CC1)c1[nH]nnc1Oc1ccc2c(c1)CCCC2` [Compound 116, cyclopropyl 4-((5,6,7,8-tetrahydronaphthalen-2-yl)oxy)-1H-1,2,3-triazole-5-carboxylate] the figure was above 10000 nM; with `O=C(O)c1[nH]nnc1OC1CCc2ccccc2C1` (stereo not drawn) [Compound 117, 4-((1,2,3,4-tetrahydronaphthalen-2-yl)oxy)-1H-1,2,3-triazole-5-carboxylic acid 2,2,2-trifluoroacetate], below 100 nM.

Turning to `O=C(O)c1[nH]nnc1Oc1ccc2ccncc2c1` [Compound 118, 4-(isoquinolin-7-yloxy)-1H-1,2,3-triazole-5-carboxylic acid 2,2,2-trifluoroacetate], the IC50 under setting [1] was below 100 nM. Consider `O=C(O)c1[nH]nnc1Oc1ccc(-c2ccc(OC(F)(F)F)cc2)c(Cl)c1` [Compound 119, 4-((2-chloro-4′-(trifluoromethoxy)-[1,1′-biphenyl]-4-yl)oxy)-1H-1,2,3-triazole-5-carboxylic acid], for which the IC50 under setting [1] is below 100 nM.
